Patent US8552035B2, “Phenanthrenone compounds, compositions and methods” (Pfizer Inc., priority 2008, dated 2013)

Key:
[1] = tested on: osteocalcin; experiment: 28-day mouse side-effect model, serum osteocalcin suppression; type: in vivo; conditions: oral gavage 28 days
Method: 10-12 week old female Swiss Webster mice (Taconic, Germantown, N.Y., U.S.A.) weighing 27-29 grams are used in accordance with the guidelines of the Institutional Animal Care and Use Committee and in accordance with NIH guidelines on laboratory animal welfare. Mice are acclimated to the Pfizer animal facility for 3-7 days prior to being placed on study. Prednisolone and DAGR compounds are administered by oral gavage for a total of 28 days. Each treatment group generally contains 8-10 mice. To establish a dosing regimen for the studies, a pilot pharmacodynamic time course experiment is conducted to quantify TNFa repression after a single ED80 dose (determined from the acute LPS endotoxemia mouse model). […] DAGR compounds vary in their required frequency of doses.
Body weights are measured on the first and last day of each experiment. Blood samples are obtained after ˜3 weeks of dosing for steady-state pharmacokinetic analysis. To assess compound effects on LPS-induced TNF-a, all mice receive an intraperitoneal injection of LPS (Salmonella Typhosa, Sigma, St. Louis, L-7895) 2.5 hr after the last dose on day 28. Mice are sacrificed 90 min. after LPS administration. Serum samples are assayed for osteocalcin and TNFa using the Linco multiplex assay (St. Charles, Mo.) and Luminex 100 (Austin, Tex.). Samples are diluted 1:20 and the assay is run according to manufacturer's instructions. An osteocalcin standard is purchased separately from Biomedical Technologies Incorporated (Stoughton, Mass.). Serum insulin is measured to assess compound effects on insulin resistance. Insulin was measured using the UltraSensitive Mouse EIA kit from Alpco Diagnostics (Salem, N.H.) following the manufacturer's protocol.
(§1) ED50 and ED80 values are obtained for the various parameters using four-parameter logistic fits of data. For each experiment/dose group, outliers are detected by calculating the number of standard deviations each mouse's value was from the mean of their group and then dividing by the standard deviation of the group. The means and standard deviations used in this calculation omitted the value being examined so that, if it were an outlier, it would have no influence. If the value being examined is more than 2.5 standard deviations from the mean, it was not used in the rest of the calculations.
(§2) Percent inhibition values are then calculated for each animal using the means of the vehicle and 10 mpk prednisone control groups. The individual mouse percent inhibition values are then fit to a four-parameter logistic model using the area under curve mean for each group. Since all four parameters are estimated and the lower plateau is not fixed at 0% and the upper plateau was not fixed at 100%, the ED50 and ED80 values are calculated by using an inverse calibration formula for a response equal to 50% or 80%. The designation “nd” means not determined.

[2] = tested on: Mouse collagen-induced arthritis; experiment: Therapeutic mouse collagen-induced arthritis (mCIA); type: in vivo
Description: Mouse Collagen-induced arthritis is a commonly used chronic, preclinical model of rheumatoid arthritis in which joint swelling and bone destruction occur following immunization with type II collagen. Reduction of disease incidence and severity has been shown previously to be predictive of disease-modification and signs and symptoms mitigation, respectively, in a clinical setting.
In the therapeutic mCIA model, induction of disease incidence and severity was synchronized via LPS stimulation. Male DBA/J mice were immunized with 100 ug of bovine type II collagen (bCII) on day 0. All mice received an intraperitoneal injection of 20 μg of LPS on day 28 and disease was allowed to develop through day 34. At day 34, all mice had disease (incidence=100%) with an average severity score of seven. Dosing of compounds was initiated in the therapeutic mode on day 34 and continued through day 49. Different treatments were compared by measuring the decrease in incidence (i.e., resolution of disease) and the decrease in severity of paw swelling over time.
as §1, §2

[3] = tested on: IFNγ; experiment: LPS-induced human whole blood, IFNγ release; type: cell-based
Method: Venous blood from human donors was collected as 10 ml aliquots in tubes containing sodium heparin (BD Vacutainer from Becton Dickinson and Company, Franklin Lakes, N.Y.). Blood was added to sterile polystyrene round bottom 96-well tissue culture plates (Corning Costar) at 180 Blood was placed in a humidified 37 C incubator with 5% CO2 while compounds were prepared (nearly 60 minutes).
Compounds were prepared from 10 mM stock solutions in dimethylsulfoxide (DMSO, Sigma-Aldrich). Stock compound was diluted in DMSO to give appropriate starting concentration then diluted serially 1/3 in DMSO (i.e. 15 μl compound+30 μl DMSO), followed by diluting each serial dilution 1/167 into vehicle solution (2% DMSO in phosphate buffered saline (Dulbecco's Phosphate Buffered Saline without calcium chloride without magnesium chloride, Invitrogen Corporation, Carlsbad Calif.)). Compound or vehicle was added to blood in 10 μl aliquots as triplicates, omitting the outside wells to minimize possible edge effects. The final highest concentration of each compound in the assay ranged from 3 to 0.3 μM. Final DMSO concentration in the assay was 0.1%. The plate containing the samples was gently vortexed to mix and replaced in the incubator. LPS stock (E. coli serotype 0111:B4, Sigma-Aldrich), stored in aliquots of 100 μg/ml in RPMI at −20° C., was diluted […] in RPMI to make a working stock solution. After 60 minutes of incubation, 10 μl of the prepared LPS working stock was added to the blood to a final concentration of 100 ng/ml. Wells to be used as negative control received RPMI media with no LPS. The plate was again gently vortexed and the plates incubated overnight for 22 hours. Following incubation, the blood was centrifuged at 1500×g for 5 minutes and the plasma removed to either freeze at −20° C. or assay for cytokine release.
IL-1β, IFNγ and TNFα protein levels were measured using Meso Scale assay kits (Meso Scale Discovery, Gaithersburg, Md., U.S.A.). Reagents were allowed to come to room temperature. Meso Scale plates were blocked with 150 μl of Meso Scale Block B diluent, gently shaking at room temperature for 60 minutes. Plates were washed 3× with wash buffer (PBS, Invitrogen Corporation, with 0.05% Tween-20, Sigma-Aldrich). Calibrators for standard curves were prepared in human plasma/serum assay diluent as a 1/5 serial dilution to achieve final concentrations ranging from 50000 pg/ml to 3.2 pg/ml. Samples were added at 10 to 20 μl/well and calibrators were added at 20 μl/well then incubated at room temperature with gentle shaking for 2 hours. Plates were again washed 3× with wash buffer. Detection antibody was diluted in human plasma/serum antibody diluent to 1 μg/ml and added to the plate at 20 μl/well. Plates were incubated as before for 2 hours and washed again. Read Buffer T (4×) was diluted 1:1 with mqH20 to 2× concentration and 150 μl added to each well. Plates were read on the SECTOR Imager 6000 (Meso Scale Discovery) to generate raw signal values.
Individual sample signal values were compared to positive and negative controls (vehicle treated blood with LPS and vehicle treated blood without LPS, respectively) to generate % inhibition. Triplicate values were averaged for each donor. The values for three or four donors were averaged and graphed using 4-parameter fit curves in the LabStats plug-in for the Microsoft Excel application.

`Cc1ncccc1NC(=O)c1ccc2c(c1)C(=O)C[C@@H]1C[C@@](O)(c3ccccc3)[C@](C)(O)C[C@@]21Cc1ccccc1` [Example 1, (4bR,6R,7R,8aS)-4b-benzyl-6,7-dihydroxy-6-methyl-N-(2-methylpyridin-3-yl)-10-oxo-7-phenyl-4b,5,6,7,8,8a,9,10-octahydrophenanthrene-2-carboxamide] was tested, and the ED50 at 28 days ([1]; female, Swiss Webster, read-out: Osteocalcin Suppression (ED50 dose)) was 0.081 mg/kg, the “Osteocalcin Suppression (ED80 dose)” value [1] was 0.35 and the ED50 ([2]; 816 h, dosing day 34 to 49, read-out: Therapeutic mCIA (ED50 dose)) was 0.3 mg/kg. The “Therapeutic mCIA (ED80 dose)” value ([2]; dosing day 34 to 49) was 1.61, the inhibition at 0.000137174 µM ([3]; Homo sapiens, 0.137174 nM, mean of donors) was -3.93% and the inhibition at 0.000411523 µM ([3]; Homo sapiens, 0.411523 nM, mean of donors) was 15.6%. The inhibition at 0.00123457 µM ([3]; Homo sapiens, 1.234568 nM, mean of donors) was 18.4%, the inhibition at 0.0037037 µM ([3]; Homo sapiens, 3.703704 nM, mean of donors) was 26.9% and the inhibition at 0.0111111 µM ([3]; Homo sapiens, 11.11111 nM, mean of donors) was 51%. For the same compound, the inhibition at 0.0333333 µM ([3]; Homo sapiens, 33.33333 nM, mean of donors) was 66.2%, the inhibition at 0.1 µM ([3]; Homo sapiens, 100 nM, mean of donors) was 72.5% and the inhibition at 0.3 µM ([3]; Homo sapiens, 300 nM, mean of donors) was 72.9%. The “level of inhibition of IFN” value ([3]; ex vivo LPS-stimulated human whole blood, extent of inhibition, concentration not given) was 73%.
